US5200409A, “Composition and use of substituted 1,3-dithiolo-and 1,4-dithiinoquinoxalines as an antimicrobial” (The Dow Chemical Company, priority 1992, dated 1993)
Values after ≈ are worked out from the molar mass of the structure shown. Where two headings read alike, the source gives them in different places.

Key:
[1] = test system: Pseudomonas aeruginosa (PRD-10); assay: Minimum inhibitory concentration (MIC) in nutrient agar; type: cell-based, Pseudomonas aeruginosa ATCC 15442
Experimental: (§1) The minimum inhibitory concentration (MIC) for the compounds listed in Table I is determined for 9 bacteria, using nutrient agar: and 7 yeast and fungi, using malt yeast agar. A one percent solution of the test compound is prepared in a mixture of acetone and water. Nutrient agar is prepared at pH 6.8, representing a neutral medium, and at pH 8.2, representing an alkaline medium. The nutrient agars are prepared by adding 23 g of nutrient agar to one-liter of deionized water. In addition, the alkaline medium is prepared by adjusting a 0.04M solution of N-[tris-(hydroxymethyl)methyl]-glycine buffered deionized water with concentrated sodium hydroxide to a pH of […]. Malt yeast agar is prepared by adding 3 g yeast extract and 45 g malt agar per liter of deionized water. The specific agar is dispensed in 30 ml aliquots into 25×200 mm test tubes, capped and autoclaved for 15 minutes at 115° C. The test tubes containing the agar are cooled in a water bath until the temperature of the agar is 48° C. Then, an appropriate amount of the one percent solution of the test compound is added (except in the controls where no compound is added) to the respective test tubes so that the final concentrations are 500, 250, 100, 50, 25, 10, 5, 2.5, 1.0 and zero parts per million of the test compound in the agar, thus having a known concentration of test compound dispersed therein. The contents of the test tubes are then transferred to respective petri plates. After drying for 24 hours, the petri plates containing nutrient agar are inoculated with bacteria and those containing malt yeast agar are inoculated with yeast and fungi.
(§2) The inoculation with bacteria is accomplished by using the following procedure. Twenty-four hour-cultures of each of the bacteria are prepared by incubating the respective bacteria in tubes containing nutrient broth for 24 hours at 30° C. in a shaker. Dilutions of each of the 24 hour-cultures are made so that nine separate suspensions (one for each of the nine test bacteria) are made, each containing 10^8 colony forming units (CFU) per ml of suspension of a particular bacteria. Aliquots of 0.3 ml of each of the bacterial suspensions are used to fill the individual wells of Steer's Replicator. For each microbial suspension, 0.3 ml was used to fill three wells (i.e., three wells of 0.3 ml each) so that for the nine different bacteria, 27 wells are filled. The Steer's Replicator is then used to inoculate both the neutral and alkaline pH nutrient agar petri plates.
(§3) The inoculated petri plates are incubated at 30° C. for 48 hours and then read to determine if the test compound which is incorporated into the agar prevented growth of the respective bacteria.
(§4) Table II lists the bacteria, yeast and fungi used in the MIC test described above along with their respective American Type Culture Collection (ATCC) identification numbers.

[2] = test system: Klebsiella pneumoniae (Kp); assay: as above; type: cell-based, Klebsiella pneumoniae ATCC 8308
Experimental: as §1, §2, §3, §4

[3] = test system: Escherichia coli (Ec); assay: as above; type: cell-based, Escherichia coli ATCC 11229
Experimental: as §1, §2, §3, §4

[4] = test system: Aspergillus niger (An); assay: Minimum inhibitory concentration (MIC) in malt yeast agar; type: cell-based, Aspergillus niger ATCC 16404; conditions: malt yeast agar; 30° C.; 72 hours for fungi; read-out: Minimum Inhibitory Concentration, An
Experimental: as §1
(§5) The inoculation with the yeast and fungi is accomplished as follows. Cultures of yeast and fungi are incubated for seven days on malt yeast agar at 30° C. These cultures are used to prepare suspensions by the following procedure. A suspension of each organism is prepared by adding 10 ml of sterile saline and 10 microliters of octylphenoxy polyethoxy ethanol to the agar slant of yeast or fungi. The sterile saline/octylphenoxy polyethoxy ethanol solution is then agitated with a sterile swab to suspend the microorganism grown on the slant. Each resulting suspension is diluted into sterile saline (1 part suspension: 9 parts sterile saline). Aliquots of these dilutions are placed in individual wells of Steer's Replicator and petri plates inoculated as previously described. The petri plates are incubated at 30° C. and read after 48 hours for yeast and 72 hours for fungi.
as §4

[5] = test system: Pseudomonas aeruginosa (Pa); assay: Minimum inhibitory concentration (MIC) in nutrient agar; type: cell-based, Pseudomonas aeruginosa ATCC 10145; conditions: 48 hours
Experimental: as §1, §2, §3, §4

[6] = test system: Candida albicans (Ca); assay: Minimum inhibitory concentration (MIC) in malt yeast agar; type: cell-based, Candida albicans ATCC 10231; conditions: malt yeast agar; 30° C.; 48 hours for yeast; read-out: Minimum Inhibitory Concentration, Ca
Experimental: as §1, §5, §4

[7] = test system: Aureobasidium pullulan (Ap); assay: as above; type: cell-based, Aureobasidium pullulan ATCC 16622; conditions: malt yeast agar; 30° C.; 48 hours for yeast and 72 hours for fungi; read-out: Minimum Inhibitory Concentration, Ap
Experimental: as §1, §5, §4

[8] = test system: Bacillus subtilis (Bs); assay: Minimum inhibitory concentration (MIC) in nutrient agar; type: cell-based, Bacillus subtilis ATCC 8473; conditions: 30° C., 48 hours, read-out: Minimum Inhibitory Concentration, Bs
Experimental: as §1, §2, §3, §4

[9] = test system: Staphylococcus aureus (Sa); assay: as above; type: cell-based, Staphylococcus aureus ATCC 6538
Experimental: as §1, §2, §3, §4

[10] = test system: Salmonella choleraesuis (Sc); assay: as above; type: cell-based, Salmonella choleraesuis ATCC 10708; conditions: Salmonella enterica
Experimental: as §1, §2, §3, §4

[11] = test system: Penicillium chrysogenum (Pc); assay: Minimum inhibitory concentration (MIC) in malt yeast agar; type: cell-based, Penicillium chrysogenum ATCC 9480; conditions: read-out: Minimum Inhibitory Concentration, Pc
Experimental: as §1, §5, §4

[12] = test system: Saccharomyces cerevisiae (Sc); assay: as above; type: cell-based, Saccharomyces cerevisiae ATCC 4105; conditions: read-out: Minimum Inhibitory Concentration, Sc
Experimental: as §1, §5, §4

[13] = test system: Trichoderma viride (Tv); assay: as above; type: cell-based, Trichoderma viride ATCC 8678; conditions: read-out: Minimum Inhibitory Concentration, Tv
Experimental: as §1, §5, §4

[14] = test system: Fusarium oxysporum (Fo); assay: as above; type: cell-based, Fusarium oxysporum ATCC 48112; conditions: read-out: Minimum Inhibitory Concentration, Fo
Experimental: as §1, §5, §4

[15] = test system: Proteus vulgaris (Pv); assay: Minimum inhibitory concentration (MIC) in nutrient agar; type: cell-based, Proteus vulgaris ATCC 881
Experimental: as §1, §2, §3, §4

[16] = test system: Enterobacter aerogenes (Ea); assay: as above; type: cell-based, Enterobacter aerogenes ATCC 13048; conditions: Klebsiella aerogenes
Experimental: as §1, §2, §3, §4

[17] = pH 6.8, nutrient agar, 30° C., 48 hours, read-out: Minimum Inhibitory Concentration, Kp
[18] = 48 h, pH 8.2, read-out: Minimum Inhibitory Concentration, Ec
[19] = pH 8.2, nutrient agar, 30° C., 48 hours, read-out: Minimum Inhibitory Concentration, Sa
[20] = malt yeast agar, 30° C., 72 hours for fungi
[21] = malt yeast agar, 30° C., 48 hours for yeast
[22] = 48 h, pH 6.8, read-out: Minimum Inhibitory Concentration, PRD
[23] = 48 h, pH 8.2, read-out: Minimum Inhibitory Concentration, PRD
[24] = 48 h, pH 8.2, read-out: Minimum Inhibitory Concentration, Kp
[25] = 48 h, pH 6.8, read-out: Minimum Inhibitory Concentration, Ec
[26] = pH 6.8, nutrient agar, 30° C., 48 hours, read-out: Minimum Inhibitory Concentration, Sa
[27] = 48 h, pH 6.8, read-out: Minimum Inhibitory Concentration, Sc
[28] = 48 h, pH 8.2, read-out: Minimum Inhibitory Concentration, Sc
[29] = 48 h, pH 6.8, read-out: Minimum Inhibitory Concentration, Pv
[30] = 48 h, pH 8.2, read-out: Minimum Inhibitory Concentration, Pv
[31] = 48 h, pH 6.8, read-out: Minimum Inhibitory Concentration, Ea
[32] = 48 h, pH 8.2, read-out: Minimum Inhibitory Concentration, Ea

SMILES	MIC [2, 17]	MIC [3, 18]	MIC [4]	MIC ([5]; pH 6.8, 30° C.)	MIC ([5]; pH 8.2, 30° C.)	MIC [6]	MIC [7]	MIC ([8]; pH 6.8, nutrient agar)	MIC ([8]; pH 8.2, nutrient agar)	MIC [9, 19]	MIC [11, 20]	MIC [12, 21]	MIC [1, 22]	MIC [1, 23]	MIC [2, 24]	MIC [3, 25]	MIC [9, 26]	MIC [10, 27]	MIC [10, 28]	MIC ([13]; 72 h)	other results
Cc1cc2nc3c(nc2cc1[N+](=O)[O-])SC(C#N)=C(C#N)S3 [F, 7-nitro-8-methyl-1,4-dithiino-(2,3-b)-quinoxaline-2,3-dicarbonitrile]	100 µg/mL (≈ 305 µM)	> 500 µg/mL	< 10 µg/mL	500 µg/mL (≈ 1530 µM)	> 500 µg/mL	< 10 µg/mL	< 10 µg/mL	< 10 µg/mL	50 µg/mL (≈ 153 µM)	50 µg/mL (≈ 153 µM)	< 10 µg/mL	< 10 µg/mL									MIC ([1]; pH 6.8, nutrient agar, 30° C., 48 hours, read-out: Minimum Inhibitory Concentration, PRD): > 500 µg/mL; MIC ([1]; pH 8.2, nutrient agar, 30° C., 48 hours, read-out: Minimum Inhibitory Concentration, PRD): > 500 µg/mL; MIC ([2]; pH 8.2, nutrient agar, 30° C., 48 hours, read-out: Minimum Inhibitory Concentration, Kp): > 500 µg/mL; MIC ([3]; pH 6.8, nutrient agar, 30° C., 48 hours, read-out: Minimum Inhibitory Concentration, Ec): 250 µg/mL (≈ 764 µM); MIC ([9]; 48 h, pH 6.8, read-out: Minimum Inhibitory Concentration, Sa): < 10 µg/mL; MIC ([10]; pH 6.8, nutrient agar, 30° C., 48 hours, read-out: Minimum Inhibitory Concentration, Sc): 250 µg/mL (≈ 764 µM); MIC ([10]; pH 8.2, nutrient agar, 30° C., 48 hours, read-out: Minimum Inhibitory Concentration, Sc): > 500 µg/mL; MIC [13, 20]: 25 µg/mL (≈ 76.4 µM); MIC [14, 20]: < 10 µg/mL; MIC ([15]; pH 6.8, nutrient agar, 30° C., 48 hours, read-out: Minimum Inhibitory Concentration, Pv): 50 µg/mL (≈ 153 µM); MIC ([15]; pH 8.2, nutrient agar, 30° C., 48 hours, read-out: Minimum Inhibitory Concentration, Pv): > 500 µg/mL; MIC ([16]; pH 6.8, nutrient agar, 30° C., 48 hours, read-out: Minimum Inhibitory Concentration, Ea): 500 µg/mL (≈ 1530 µM); MIC ([16]; pH 8.2, nutrient agar, 30° C., 48 hours, read-out: Minimum Inhibitory Concentration, Ea): > 500 µg/mL
N#CC1=C(C#N)Sc2nc3cc([N+](=O)[O-])c(Cl)cc3nc2S1 [G, 7-chloro-8-nitro-1,4-dithiino-(2,3-b)-quinoxaline-2,3-dicarbonitrile]	500 µg/mL (≈ 1440 µM)	> 500 µg/mL	25 µg/mL (≈ 71.9 µM)	> 500 µg/mL	> 500 µg/mL	25 µg/mL (≈ 71.9 µM)	25 µg/mL (≈ 71.9 µM)	250 µg/mL (≈ 719 µM)	100 µg/mL (≈ 288 µM)	50 µg/mL (≈ 144 µM)			> 500 µg/mL	> 500 µg/mL	> 500 µg/mL	> 500 µg/mL	25 µg/mL (≈ 71.9 µM)	> 500 µg/mL	> 500 µg/mL	100 µg/mL (≈ 288 µM)	MIC ([11]; 72 h): 100 µg/mL (≈ 288 µM); MIC ([12]; 48 h): 25 µg/mL (≈ 71.9 µM); MIC ([14]; 72 h): 100 µg/mL (≈ 288 µM); MIC [15, 29]: > 500 µg/mL; MIC [15, 30]: > 500 µg/mL; MIC [16, 31]: > 500 µg/mL; MIC [16, 32]: > 500 µg/mL
N#CC1=C(C#N)Sc2nc3cc(C#N)ccc3nc2S1 [H, 7-cyano-1,4-dithiino-(2,3-b)-quinoxaline-2,3-dicarbonitrile]	500 µg/mL (≈ 1700 µM)	> 500 µg/mL	25 µg/mL (≈ 85.2 µM)	> 500 µg/mL	> 500 µg/mL	25 µg/mL (≈ 85.2 µM)	< 10 µg/mL	< 10 µg/mL	50 µg/mL (≈ 170 µM)	50 µg/mL (≈ 170 µM)	< 10 µg/mL	< 10 µg/mL	> 500 µg/mL	> 500 µg/mL	> 500 µg/mL	> 500 µg/mL	25 µg/mL (≈ 85.2 µM)	> 500 µg/mL	> 500 µg/mL	100 µg/mL (≈ 341 µM)	MIC ([14]; 72 h): 50 µg/mL (≈ 170 µM); MIC [15, 29]: 500 µg/mL (≈ 1700 µM); MIC [15, 30]: > 500 µg/mL; MIC [16, 31]: > 500 µg/mL; MIC [16, 32]: > 500 µg/mL
